Assay results as given in patent US20220304862A1, “Method And Device For Substance Delivery To The Inner Ear” (UNIVERSITY OF BRIGHTON, priority 2019, published 2022).

Tested on: auditory nerve
Description: Pigmented guinea pigs of similar weight (350-360 g) were anaesthetised with the neurolept anaesthetic technique (0.06 mg/kg body weight atropine sulphate s.c., 30 mg/kg pentobarbitone i.p., 500 μl/kg Hypnorm i.m.). Additional injections of Hypnorm were given every 40 minutes. Additional doses of pentobarbitone were administered as needed to maintain a non-reflexive state. The heart rate was monitored with a pair of skin electrodes placed on both sides of the thorax. The animals were tracheotomized and artificially respired, and their core temperature was maintained at 38° C. with a heating blanket and a heated head holder.
The middle ear cavity of the ear used for the measurements was opened to reveal the round window. Compound action potentials of the auditory nerve were measured from the cochlear bony ridge in the proximity of the round window membrane using Teflon-coated silver wire coupled to laboratory designed and built extracellular amplifier (James Hartley). Thresholds of the N1 peak of the compound action potentials were estimated visually using 10 ms tone stimuli at a repetition rate of 10 Hz.
For acoustic stimulation sound was delivered to the tympanic membrane by a closed acoustic system comprising two Bruel and Kjaer 4134½″ microphones for delivering tones and a single Bruel and Kjaer 4133½″ microphone for monitoring sound pressure at the tympanum. The microphones were coupled to the ear canal via 1 cm long, 4 mm diameter tubes to a conical speculum, the 1 mm diameter opening of which was placed about 1 mm from the tympanum. The closed sound system was calibrated in situ for frequencies between 1 and 50 kHz. Known sound pressure levels were expressed in dB SPL re 2×10^−5 Pa. All acoustic stimuli in this work were shaped with raised cosines of 0.5 ms duration at the beginning and at the end of stimulation. White noise for acoustical calibration and tone sequences for auditory stimulation were synthesised by a Data Translation 3010 board at 250 kHz sampling rate and delivered to the microphones through low-pass filters (100 kHz cut-off frequency). Signals from the acoustic measuring amplifier (James Hartley) were digitised at 250 kHz sampling rate using the same board and averaged in the time domain. Experimental control, data acquisition and data analysis were performed using a PC with programmes written in MATLAB.
The solution was removed from the round window using paper wicks to observe the wash out effect. […]
In the second experiments, the placement of the same volume of salicylate solution on the round window was followed by stimulation of the ear with oscillating air pressure in the ear canal during a 5-minute period with a consecutive 5-minute period without oscillating air pressure stimulation when the auditory nerve thresholds were measured. […]

Compound: O=C([O-])c1ccccc1O.[Na+] [salicylate, sodium salicylate]
- time after which the salicylate effect saturated (oscillating pressure 4 Hz in ear canal, total pressure stimulation time, excluding the 5-minute no-pressure periods): 15 to 20 min
- effect of salicylate on the auditory nerve threshold (passive diffusion, 5 μl of 100 mM on round window, tone frequencies lower than 5 kHz (approximately apical 55% of cochlear length), FIG. 2A): no effect
- increase of threshold response to pure tones with oscillating pressure versus passive diffusion (tones 27, 21, 15, 11, 5, 3 and 1 kHz, particularly low frequencies, pooled data of 5 experiments per protocol, FIG. 4): to a far greater extent
- recovery of compound action potential thresholds after washing out of salicylate from the round window (washout after 80 min (passive) or 74 min (oscillating pressure), FIG. 2): Partial recovery
